Where two headings read alike, the source gives them in different places.
Legend:
FLT3 = FLT3 (Homo sapiens (Human), UniProt P36888); assay: Inhibition of FLT3 kinase activity (HTRF KinEASE-TK); assay type: biochemical; settings: biochemical
Summary of the method: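 FLT3 tyrosine kinase activity was measured with the HTRF KinEASE-TK kit by following phosphorylation of a biotinylated TK peptide. After the 45 min reaction, 10 μL of detection mix was added: 0.2 μM (2×) Streptavidin-XL665 and 2 μM (2×) TK-Antibody-Cryptate in detection buffer. After 60 min, TR-FRET was read on an Envision as the 665 nm/620 nm emission ratio with 320 nm excitation.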

PDGFRβ = PDGFRβ (Homo sapiens (Human), UniProt P09619); assay: Inhibition of PDGFRβ kinase activity (HTRF KinEASE-TK); settings: biochemical
Summary of the method: (§1)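 Human kinases were preincubated 1 h at rt with a 22-point 1:2 compound titration, then run 120 min at rt with biotinylated TK peptide and ATP (2× mix: c-Kit 16 μM, PDGFRα 1 μM, PDGFRβ 40 μM, CSF1R 20 μM). Phosphopeptide was read by HTRF TR-FRET (665/620 nm), and IC50s came from 4-parameter fits.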

PDGFRα = PDGFRα (Homo sapiens (Human), UniProt P16234); assay: Inhibition of PDGFRα kinase activity (HTRF KinEASE-TK); settings: biochemical
Summary of the method: as §1

[1] = test system: Phospho-KIT (Y703) in M07e cells; assay: Phospho-KIT (Y703) cellular assay in M07e cells; assay type: cell-based; settings: read-out: M07e Cell IC50
Summary of the method: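 Serum-starved M07e cells preincubated 50 min at 37° C with 11-point half-log compound titration, then stimulated 10 min with SCF at 90.9 ng/mL final. Fixed, permeabilized cells stained for phospho-KIT Y703 and read by flow cytometry (live-gated geometric mean); IC50 by 4-parameter fit normalized to DMSO and positive control.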

CSF1R = CSF1R (Homo sapiens (Human), UniProt P07333); assay: Inhibition of CSF1R kinase activity (HTRF KinEASE-TK); settings: biochemical
Summary of the method: as §1

c-Kit = c-Kit (Homo sapiens (Human), UniProt P10721); assay: Inhibition of c-Kit kinase activity (HTRF KinEASE-TK); assay type: biochemical; settings: biochemical
Summary of the method: as §1

[2] = M-07e, Phospho-KIT (Y703), M07e cells

Chain of CSF1R (P07333 20-972): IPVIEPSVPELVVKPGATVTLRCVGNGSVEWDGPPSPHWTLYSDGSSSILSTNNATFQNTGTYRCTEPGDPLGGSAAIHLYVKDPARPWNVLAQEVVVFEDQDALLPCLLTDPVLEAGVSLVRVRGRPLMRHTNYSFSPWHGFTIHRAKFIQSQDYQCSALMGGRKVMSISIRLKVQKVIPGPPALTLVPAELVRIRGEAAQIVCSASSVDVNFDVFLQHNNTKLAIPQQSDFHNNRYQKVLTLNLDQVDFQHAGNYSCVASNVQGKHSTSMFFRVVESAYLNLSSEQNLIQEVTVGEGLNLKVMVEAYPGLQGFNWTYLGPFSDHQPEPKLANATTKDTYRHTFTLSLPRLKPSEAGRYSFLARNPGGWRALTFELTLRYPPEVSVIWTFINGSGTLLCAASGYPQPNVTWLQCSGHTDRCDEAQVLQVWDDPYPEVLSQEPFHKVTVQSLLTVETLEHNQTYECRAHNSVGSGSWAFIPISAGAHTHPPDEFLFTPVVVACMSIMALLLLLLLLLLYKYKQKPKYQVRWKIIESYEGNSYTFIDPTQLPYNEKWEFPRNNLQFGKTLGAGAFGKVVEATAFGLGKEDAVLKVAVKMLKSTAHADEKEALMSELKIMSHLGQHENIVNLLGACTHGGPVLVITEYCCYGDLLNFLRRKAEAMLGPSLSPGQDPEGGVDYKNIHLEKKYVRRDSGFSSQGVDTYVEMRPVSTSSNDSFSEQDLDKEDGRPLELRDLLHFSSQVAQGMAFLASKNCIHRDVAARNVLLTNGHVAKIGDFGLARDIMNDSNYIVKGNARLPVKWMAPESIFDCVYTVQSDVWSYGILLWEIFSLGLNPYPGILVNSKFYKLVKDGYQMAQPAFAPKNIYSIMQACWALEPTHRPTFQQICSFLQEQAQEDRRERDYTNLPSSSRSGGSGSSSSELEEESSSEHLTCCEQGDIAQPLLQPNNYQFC
Chain of FLT3 (P36888 27-993): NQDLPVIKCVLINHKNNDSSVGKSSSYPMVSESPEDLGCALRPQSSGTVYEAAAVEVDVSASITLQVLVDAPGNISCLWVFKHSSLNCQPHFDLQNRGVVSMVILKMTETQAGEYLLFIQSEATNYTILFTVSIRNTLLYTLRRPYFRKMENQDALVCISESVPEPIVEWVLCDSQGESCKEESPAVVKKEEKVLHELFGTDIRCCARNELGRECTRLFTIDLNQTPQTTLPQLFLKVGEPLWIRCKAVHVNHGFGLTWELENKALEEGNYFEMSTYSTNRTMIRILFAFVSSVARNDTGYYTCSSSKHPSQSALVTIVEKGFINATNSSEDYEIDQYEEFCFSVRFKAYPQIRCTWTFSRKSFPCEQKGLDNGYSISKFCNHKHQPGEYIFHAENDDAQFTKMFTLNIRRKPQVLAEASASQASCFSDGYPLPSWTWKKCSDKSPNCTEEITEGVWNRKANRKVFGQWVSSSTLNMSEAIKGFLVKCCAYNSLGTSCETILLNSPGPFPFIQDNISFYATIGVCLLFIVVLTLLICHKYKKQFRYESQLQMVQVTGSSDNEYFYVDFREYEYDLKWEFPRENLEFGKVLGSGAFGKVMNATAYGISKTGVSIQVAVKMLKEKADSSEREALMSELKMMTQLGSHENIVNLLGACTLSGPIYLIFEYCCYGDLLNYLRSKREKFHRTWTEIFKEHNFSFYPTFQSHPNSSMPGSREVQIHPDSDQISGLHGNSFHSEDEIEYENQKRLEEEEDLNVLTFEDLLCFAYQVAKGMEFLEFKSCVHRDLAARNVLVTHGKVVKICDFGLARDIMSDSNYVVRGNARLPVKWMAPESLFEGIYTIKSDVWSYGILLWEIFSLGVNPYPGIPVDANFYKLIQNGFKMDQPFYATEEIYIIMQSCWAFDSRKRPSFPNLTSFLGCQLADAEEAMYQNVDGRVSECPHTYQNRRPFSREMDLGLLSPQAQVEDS
Chain of PDGFRα (P16234 24-1089): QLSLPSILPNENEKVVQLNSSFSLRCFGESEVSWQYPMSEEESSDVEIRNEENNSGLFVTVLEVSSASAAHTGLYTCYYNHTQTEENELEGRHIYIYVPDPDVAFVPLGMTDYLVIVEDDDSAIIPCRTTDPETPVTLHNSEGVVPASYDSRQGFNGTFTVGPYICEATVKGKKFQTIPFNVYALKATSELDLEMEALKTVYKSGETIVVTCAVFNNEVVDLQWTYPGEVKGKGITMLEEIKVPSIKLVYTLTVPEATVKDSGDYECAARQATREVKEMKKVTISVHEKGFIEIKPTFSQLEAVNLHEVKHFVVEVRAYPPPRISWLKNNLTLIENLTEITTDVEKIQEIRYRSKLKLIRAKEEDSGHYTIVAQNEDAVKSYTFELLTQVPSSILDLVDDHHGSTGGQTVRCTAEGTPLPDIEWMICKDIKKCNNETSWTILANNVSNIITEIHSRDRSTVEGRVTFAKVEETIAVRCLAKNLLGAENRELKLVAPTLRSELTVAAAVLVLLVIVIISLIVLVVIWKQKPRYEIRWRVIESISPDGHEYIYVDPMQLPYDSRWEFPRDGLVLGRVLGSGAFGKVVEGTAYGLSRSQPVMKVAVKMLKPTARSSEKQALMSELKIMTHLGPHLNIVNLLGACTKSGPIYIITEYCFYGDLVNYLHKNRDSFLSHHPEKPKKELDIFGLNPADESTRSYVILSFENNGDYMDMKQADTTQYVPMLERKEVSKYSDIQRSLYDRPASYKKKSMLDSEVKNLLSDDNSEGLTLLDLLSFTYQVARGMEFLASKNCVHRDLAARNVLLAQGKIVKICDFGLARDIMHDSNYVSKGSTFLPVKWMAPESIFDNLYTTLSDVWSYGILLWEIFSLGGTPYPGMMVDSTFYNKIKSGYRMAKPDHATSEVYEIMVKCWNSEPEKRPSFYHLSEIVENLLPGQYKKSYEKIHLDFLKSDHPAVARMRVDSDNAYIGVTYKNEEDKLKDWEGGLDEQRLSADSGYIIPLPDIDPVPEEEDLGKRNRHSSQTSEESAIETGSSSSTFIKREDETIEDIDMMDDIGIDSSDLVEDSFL
Chain of PDGFRβ (P09619 33-1106): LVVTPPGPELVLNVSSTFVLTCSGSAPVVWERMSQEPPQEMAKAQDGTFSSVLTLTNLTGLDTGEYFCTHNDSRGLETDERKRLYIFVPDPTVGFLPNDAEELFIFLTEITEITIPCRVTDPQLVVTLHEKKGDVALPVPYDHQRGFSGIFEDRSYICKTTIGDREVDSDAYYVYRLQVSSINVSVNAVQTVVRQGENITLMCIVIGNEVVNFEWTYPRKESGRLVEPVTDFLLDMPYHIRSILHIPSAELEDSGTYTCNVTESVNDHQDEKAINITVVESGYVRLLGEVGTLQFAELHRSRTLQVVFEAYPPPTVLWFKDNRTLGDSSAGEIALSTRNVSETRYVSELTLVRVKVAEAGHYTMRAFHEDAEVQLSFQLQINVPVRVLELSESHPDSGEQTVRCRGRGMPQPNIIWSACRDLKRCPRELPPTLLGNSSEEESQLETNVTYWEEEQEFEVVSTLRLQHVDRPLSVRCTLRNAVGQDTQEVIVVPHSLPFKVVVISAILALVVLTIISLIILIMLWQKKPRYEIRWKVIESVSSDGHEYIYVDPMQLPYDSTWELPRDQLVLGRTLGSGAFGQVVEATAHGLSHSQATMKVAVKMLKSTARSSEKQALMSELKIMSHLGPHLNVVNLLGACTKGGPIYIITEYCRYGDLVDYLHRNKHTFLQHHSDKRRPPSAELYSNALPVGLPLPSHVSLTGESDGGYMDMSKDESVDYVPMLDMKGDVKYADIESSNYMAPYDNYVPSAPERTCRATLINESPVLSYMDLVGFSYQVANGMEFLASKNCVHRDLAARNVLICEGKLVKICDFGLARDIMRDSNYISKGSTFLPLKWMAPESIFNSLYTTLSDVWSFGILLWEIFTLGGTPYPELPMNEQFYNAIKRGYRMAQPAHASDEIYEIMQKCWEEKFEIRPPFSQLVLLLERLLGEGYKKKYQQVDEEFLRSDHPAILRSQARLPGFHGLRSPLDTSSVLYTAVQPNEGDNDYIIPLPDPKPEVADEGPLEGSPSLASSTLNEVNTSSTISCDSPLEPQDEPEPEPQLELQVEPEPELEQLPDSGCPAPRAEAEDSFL
Chain of c-Kit (P10721 26-976): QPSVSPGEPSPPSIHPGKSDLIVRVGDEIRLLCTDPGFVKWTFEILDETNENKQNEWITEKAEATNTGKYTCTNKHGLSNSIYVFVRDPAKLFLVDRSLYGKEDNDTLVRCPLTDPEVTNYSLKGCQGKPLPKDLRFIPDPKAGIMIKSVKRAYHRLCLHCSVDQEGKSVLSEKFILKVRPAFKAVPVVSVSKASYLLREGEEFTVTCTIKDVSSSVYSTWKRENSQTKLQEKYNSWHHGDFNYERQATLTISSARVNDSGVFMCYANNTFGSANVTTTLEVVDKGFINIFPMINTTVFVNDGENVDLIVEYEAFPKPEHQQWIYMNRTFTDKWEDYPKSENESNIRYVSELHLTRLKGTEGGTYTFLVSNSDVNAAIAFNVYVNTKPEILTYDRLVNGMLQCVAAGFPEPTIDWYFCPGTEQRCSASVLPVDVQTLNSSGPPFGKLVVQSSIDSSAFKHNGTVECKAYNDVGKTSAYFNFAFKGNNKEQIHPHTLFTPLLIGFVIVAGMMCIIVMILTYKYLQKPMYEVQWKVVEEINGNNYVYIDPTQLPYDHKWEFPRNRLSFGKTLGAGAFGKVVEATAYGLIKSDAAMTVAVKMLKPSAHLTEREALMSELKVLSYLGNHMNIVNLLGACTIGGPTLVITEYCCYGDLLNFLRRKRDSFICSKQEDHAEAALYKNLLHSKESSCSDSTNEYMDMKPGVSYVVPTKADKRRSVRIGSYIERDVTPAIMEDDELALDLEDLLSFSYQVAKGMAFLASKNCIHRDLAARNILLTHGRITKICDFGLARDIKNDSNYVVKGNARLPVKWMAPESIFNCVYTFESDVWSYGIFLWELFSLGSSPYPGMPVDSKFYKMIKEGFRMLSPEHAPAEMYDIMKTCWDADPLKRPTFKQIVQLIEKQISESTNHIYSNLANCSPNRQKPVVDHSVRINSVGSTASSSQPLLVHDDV

Row | IC50 (FLT3; HTRF KinEASE-TK) | IC50 (PDGFRβ; HTRF KinEASE-TK) | IC50 (PDGFRα; HTRF KinEASE-TK) | IC50 ([1]; Phospho-KIT (Y703), M07e cells) | IC50 (CSF1R; HTRF KinEASE-TK) | IC50 (c-Kit; HTRF KinEASE-TK) | IC50 [1, 2] | IC50 (FLT3) | IC50 (PDGFRβ) | IC50 (PDGFRα) | IC50 ([1]; M-07e, phospho-KIT (Y703), SCF-stimulated M07e cells) | IC50 (CSF1R) | IC50 (c-Kit) | Structure (SMILES)
1 | > 1000 nM | < 100 nM | 100 to 1000 nM | < 100 nM | 100 to 1000 nM | < 100 nM |  |  |  |  |  |  |  | Cc1cc(F)c(C(=O)Nc2ccc(OC3CC3)cn2)cc1NC(=O)c1cnc(NC(=O)C2CC2)s1 [Example 238, 2-(Cyclopropanecarbonylamino)-NV-[5-[(5-cyclopropyloxypyridin-2-yl)carbamoyl]-4-fluoro-2-methylphenyl]-1,3-thiazole-5-carboxamide]
2 | > 1000 nM | 100 to 1000 nM | > 1000 nM |  | 100 to 1000 nM | < 100 nM | < 100 nM |  |  |  |  |  |  | Nc1ncc(C(=O)Nc2cc(C(=O)Nc3ccc(OC4CC4)cn3)c(F)cc2Cl)s1 [Example 209, 2-Amino-N-[2-chloro-5-[(5-cyclopropyloxypyridin-2-yl)carbamoyl]-4-fluorophenyl]-1,3-thiazole-5-carboxamide]
3 | > 1000 nM | > 1000 nM | > 1000 nM |  | > 1000 nM | < 100 nM | < 100 nM |  |  |  |  |  |  | CNc1ncc(C(=O)Nc2cc(C(=O)Nc3ccc(OC4CC4)cn3)c(F)cc2C)s1 [Example 241, N-[5-[(5-cyclopropyloxypyridin-2-yl)carbamoyl]-4-fluoro-2-methylphenyl]-2-(methylamino)-1,3-thiazole-5-carboxamide]
4 | > 1000 nM | > 1000 nM | > 1000 nM |  | 100 to 1000 nM | < 100 nM | < 100 nM |  |  |  |  |  |  | Nc1ncc(C(=O)Nc2cc(C(=O)Nc3ccc(C(F)(F)F)cn3)c(F)cc2F)s1 [Example 216, 2-Amino-N-[2,4-difluoro-5-[[5-(trifluoromethyl)pyridin-2-yl]carbamoyl]phenyl]-1,3-thiazole-5-carboxamide]
5 |  |  |  |  |  |  |  | > 1000 nM | 100 to 1000 nM | > 1000 nM | < 100 nM | 100 to 1000 nM | < 100 nM | Cc1cc(F)c(C(=O)Nc2ccc(OC(F)F)cn2)cc1NC(=O)c1cnc(N)s1 [Example 9, 2-Amino-N-[5-[[5-(difluoromethoxy)pyridin-2-yl]carbamoyl]-4-fluoro-2-methylphenyl]-1,3-thiazole-5-carboxamide]
6 | > 1000 nM | > 1000 nM | > 1000 nM |  | > 1000 nM | < 100 nM | < 100 nM |  |  |  |  |  |  | Cc1cc(F)c(C(=O)N[C@H]2C[C@@H](F)C2)cc1NC(=O)c1cnc(N)s1 [Example 124, 2-Amino-N-[4-fluoro-5-[(3-fluorocyclobutyl)carbamoyl]-2-methylphenyl]-1,3-thiazole-5-carboxamide]
7 | > 1000 nM | 100 to 1000 nM | 100 to 1000 nM |  | > 1000 nM | < 100 nM | < 100 nM |  |  |  |  |  |  | Cc1cc(F)c(C(=O)NCC2(F)CC2)cc1NC(=O)c1cnc(NC(=O)N2CCC2)s1 [Example 103, 2-(Azetidine-1-carbonylamino)-N-[4-fluoro-5-[(1-fluorocyclopropyl)methylcarbamoyl]-2-methylphenyl]-1,3-thiazole-5-carboxamide]
8 | > 1000 nM | 100 to 1000 nM | > 1000 nM |  | > 1000 nM | < 100 nM | < 100 nM |  |  |  |  |  |  | Cc1cc(F)c(C(=O)Nc2ccn(CC(F)F)n2)cc1NC(=O)c1cnc(N)s1 [Example 148, 2-Amino-N-[5-[[1-(2,2-difluoroethyl)pyrazol-3-yl]carbamoyl]-4-fluoro-2-methylphenyl]-1,3-thiazole-5-carboxamide]
9 | > 1000 nM | > 1000 nM | > 1000 nM |  | > 1000 nM | < 100 nM | < 100 nM |  |  |  |  |  |  | Cc1ncc(C(=O)Nc2cc(C(=O)Nc3ccn(C(C)C)n3)c(F)cc2C)s1 [Example 63, N-[4-Fluoro-2-methyl-5-[(1-propan-2-ylpyrazol-3-yl)carbamoyl]phenyl]-2-methyl-1,3-thiazole-5-carboxamide]
10 | > 1000 nM | < 100 nM | < 100 nM |  | 100 to 1000 nM | < 100 nM | < 100 nM |  |  |  |  |  |  | Cc1cc(F)c(C(=O)Nc2ccc(OC3CC3)cc2)cc1NC(=O)c1cnc(N)s1 [Example 229, 2-Amino-N-[5-[(4-cyclopropyloxyphenyl)carbamoyl]-4-fluoro-2-methylphenyl]-1,3-thiazole-5-carboxamide]
11 | > 1000 nM | > 1000 nM | > 1000 nM |  | > 1000 nM | < 100 nM | < 100 nM |  |  |  |  |  |  | Nc1ncc(C(=O)Nc2cc(C(=O)Nc3ccc(OCC(F)F)cn3)c(F)cc2F)s1 [Example 213, 2-Amino-N-[5-[[5-(2,2-difluoroethoxy)pyridin-2-yl]carbamoyl]-2,4-difluorophenyl]-1,3-thiazole-5-carboxamide]
12 | > 1000 nM | > 1000 nM | > 1000 nM |  | > 1000 nM | < 100 nM | < 100 nM |  |  |  |  |  |  | CCOc1cnc(NC(=O)c2cc(NC(=O)c3cnc(C)s3)c(C)cc2F)cn1 [Example 17, N-[5-[(5-Ethoxypyrazin-2-yl)carbamoyl]-4-fluoro-2-methylphenyl]-2-methyl-1,3-thiazole-5-carboxamide]
13 | > 1000 nM | > 1000 nM | > 1000 nM |  | > 1000 nM | < 100 nM | < 100 nM |  |  |  |  |  |  | Nc1ncc(C(=O)Nc2cc(C(=O)Nc3ccc(C(F)F)cn3)c(F)cc2F)s1 [Example 217, 2-Amino-N-[5-[[5-(difluoromethyl)pyridin-2-yl]carbamoyl]-2,4-difluorophenyl]-1,3-thiazole-5-carboxamide]
14 | > 1000 nM | 100 to 1000 nM | > 1000 nM |  | 100 to 1000 nM | < 100 nM | < 100 nM |  |  |  |  |  |  | Nc1ncc(C(=O)Nc2cc(C(=O)Nc3ccc(OC(F)F)cn3)c(F)cc2Cl)s1 [Example 208, 2-Amino-N-[2-chloro-5-[[5-(difluoromethoxy)pyridin-2-yl]carbamoyl]-4-fluorophenyl]-1,3-thiazole-5-carboxamide]
15 | > 1000 nM | 100 to 1000 nM | > 1000 nM |  | 100 to 1000 nM | < 100 nM | < 100 nM |  |  |  |  |  |  | Cc1cc(F)c(C(=O)Nc2ccc(OC3CC3)cn2)cc1NC(=O)c1cnc(N)s1 [Example 129, 2-Amino-N-[5-[(5-cyclopropyloxypyridin-2-yl)carbamoyl]-4-fluoro-2-methylphenyl]-1,3-thiazole-5-carboxamide]
16 | > 1000 nM | < 100 nM | 100 to 1000 nM |  | 100 to 1000 nM | < 100 nM | < 100 nM |  |  |  |  |  |  | Cc1cc(F)c(C(=O)Nc2ccc(C3CC3)nn2)cc1NC(=O)c1cnc(N)s1 [Example 135, 2-Amino-N-[5-[(6-cyclopropylpyridazin-3-yl)carbamoyl]-4-fluoro-2-methylphenyl]-1,3-thiazole-5-carboxamide]
17 | > 1000 nM | 100 to 1000 nM | 100 to 1000 nM |  | > 1000 nM | < 100 nM | < 100 nM |  |  |  |  |  |  | Cc1cc(F)c(C(=O)Nc2ccn(CC(C)C)n2)cc1NC(=O)c1cnc(N)s1 [Example 142, 2-Amino-N-[4-fluoro-2-methyl-5-[[1-(2-methylpropyl)pyrazol-3-yl]carbamoyl]phenyl]-1,3-thiazole-5-carboxamide]

From patent US20250145606A1 (Arcus Biosciences, Inc., priority 2023, published 2025)
